Experimental data from PMC6443933, “Antagonizing Retinoic Acid-Related-Orphan Receptor Gamma Activity Blocks the T Helper 17/Interleukin-17 Pathway Leading to Attenuated Pro-inflammatory Human Keratinocyte and Skin Responses” (Frontiers in Immunology, 2019).

Tests used:
RORα = tested on: T1, RORα; test: RORα LBD-GAL4 reporter gene assay in Jurkat cells; assay type: cell-based, human
T1 construct: RORα and RORβ we performed LBD-GAL4 reporter gene assays; expressed in transfected cells; host or cells: Jurkat cells stably carrying pGL4.35
Method: Selectivity against other ROR family members was assessed in a GAL4 reporter gene assay as previously described ([44]). Briefly, Jurkat cells stably expressing the pGL4.35 plasmid (Promega) containing nine GAL4 binding sites inducing the transcription of the luciferase reporter gene were transiently transfected with the human RORα, RORβ or RORγt-LBD/GAL4-DBD constructs. After 24 h post-transfection, cells were incubated with Cpd A for an additional 24 h before luciferase activity was determined using an EnVision Multilabel Plate Reader (Perkin Elmer).

naive human CD4+ T-cells = test: Th17 polarization of naive CD4+ T-cells, IL-17A ELISA; assay type: cell-based; details: T-cell, 168 h, Th17 differentiation 7 days, read-out: IC50, IL-17A secretion
Method: (§1) Total, naive and memory CD4^+ T cells were isolated from Peripheral blood mononuclear cells (PBMCs) from healthy volunteers by density gradient centrifugation using Ficoll Paque (GE). Total, naive or memory CD4^+ T-cells were prepared by immunomagnetic separation using the respective CD4^+ T-cell enrichment kits resulting in untouched highly purified subsets (EasySep™, Stem Cell). Purity was assessed by flow cytometry and was between 95 and 98% for the total CD4^+ T-cells. The purity of naive (CD45RA^+CD45RO^−) and memory (CD45RA^−CD45RO^+) CD4^+T-cells ranged between 95 and 98%, respectively. For T-cell stimulation experiments, cells were treated as previously published ([44]). Briefly, T-cells were stimulated with plate-bound monoclonal antibodies against CD3 (1 μg/ml, clone OKT-3, BioXcell) and CD28 (1 μg/ml, clone CD28.2, BioLegend). For Th17 polarization assays, IL-6 (20 ng/ml), TGF-β1 (5 ng/ml), IL-1β (10 ng/ml), and IL-23 (10 ng/ml) were added. For Th1 polarization assays, IL-12 (10 ng/ml) and anti-IL-4 antibody (5 μg/ml), for Th2 polarizations, IL-4 (10 ng/ml) and anti-IFN-γ antibody (5 μg/ml) were added. For Th0 polarization assays, cells were only stimulated with CD3 and CD28 antibodies. […] Cytokine concentrations were quantified by ELISA according to the manufacturer's instructions (eBioscience or BioLegend).

total CD4+ T-cells = test: Intracellular FACS of IL-17A/IFN-γ-producing CD4+ T-cells after Th17 polarization; assay type: cell-based, human; details: 3-day Th17 differentiation
Method: as §1, with “or BioLegend). […]” for “or BioLegend).”

[1] = tested on: STAT3 phosphorylation in Ba/F3 cells stably expressing the human IL-21 receptor; test: IL-21-induced phospho-STAT3 by flow cytometry; assay type: cell-based; details: 10 μM, 1 h pre-incubation, vs DMSO
Method: To assess whether Cpd A affected STAT3 activity we induced STAT3 phosphorylation in Ba/F3 cells stably expressing the human IL-21 receptor (kindly provided by Dr. Max Warncke, Novartis). Cells were pre-incubated for 1 h with 10 μM of Cpd A or with 1 μM of the pan-JAK inhibitor CP690550. To induce STAT3 activity, the cells were stimulated for 1.5 h with recombinant human IL-21 (3 nM), followed by two washing steps using buffer containing PBS/0.5% BSA. The cells were fixed with 2% paraformaldehyde for 15 min at room temperature, washed and resuspended in ice-cold 90% methanol solution and stored overnight at −20°C. The samples were washed and stained for 1 h with an Alexa 647-labeled anti-phospho (pY705)-STAT3 antibody (BD biosciences). After two washes the cells were analyzed using a LSR Fortessa (BD Bioscience) and analyzed using FlowJo software (Tree Star).

[2] = tested on: human Th17 cells (total CD4+ T-cells); test: RORγt target gene expression in Th17 cells by qRT-PCR; assay type: cell-based; details: Th17 polarization 72 h, concentration-dependent
Method: Total, naive and memory CD4^+ T cells were isolated from Peripheral blood mononuclear cells (PBMCs) from healthy volunteers by density gradient centrifugation using Ficoll Paque (GE). Total, naive or memory CD4^+ T-cells were prepared by immunomagnetic separation using the respective CD4^+ T-cell enrichment kits resulting in untouched highly purified subsets (EasySep™, Stem Cell). Purity was assessed by flow cytometry and was between 95 and 98% for the total CD4^+ T-cells. The purity of naive (CD45RA^+CD45RO^−) and memory (CD45RA^−CD45RO^+) CD4^+T-cells ranged between 95 and 98%, respectively. For T-cell stimulation experiments, cells were treated as previously published ([44]). Briefly, T-cells were stimulated with plate-bound monoclonal antibodies against CD3 (1 μg/ml, clone OKT-3, BioXcell) and CD28 (1 μg/ml, clone CD28.2, BioLegend). For Th17 polarization assays, IL-6 (20 ng/ml), TGF-β1 (5 ng/ml), IL-1β (10 ng/ml), and IL-23 (10 ng/ml) were added. For Th1 polarization assays, IL-12 (10 ng/ml) and anti-IL-4 antibody (5 μg/ml), for Th2 polarizations, IL-4 (10 ng/ml) and anti-IFN-γ antibody (5 μg/ml) were added. For Th0 polarization assays, cells were only stimulated with CD3 and CD28 antibodies. Supernatants were collected after 3 or 7 days of incubation for total or naive/memory CD4^+ T-cell polarizations, respectively. Cytokine concentrations were quantified by ELISA according to the manufacturer's instructions (eBioscience or BioLegend).
Total RNA from human Th17 cells (6 × 10^5 cells), RORγt-RORE HUT78 cells (4 × 10^5 cells) and HaCaT cells (6 × 10^4 cells) was extracted using RNeasy kit including a DNAse I digestion step according to the manufacturer‘s protocol (Qiagen). Frozen skin biopsies (8 mm punches) were resuspended in RLT buffer (Qiagen) containing 1% β-mercaptoethanol and homogenized using a Precellys-Cryolys device (Bertin Instruments) according to the manufacturer's instructions. cDNAs were prepared with the High Capacity cDNA Reverse Transcription Kit (Applied Biosystems). Quantitative RT-PCR analysis was performed using a TaqManViiA7 (Applied Biosystems). All runs were accompanied by the internal control gene human β-glucoronidase (Gus) (431088E). The samples were run in triplicate or in hexaplicate and normalized to Gus using the ΔΔCt method to provide arbitrary units representing relative expression levels. The following Taqman probes were used for RT-PCR (Thermo Scientific): RORC (Hs01076112_m1), IL17A (Hs00936345_m1), IL22 (Hs01574154_m1), IL26 (Hs00218189_m1), IL23R (Hs00332759_m1), CCR6 (Hs00218189_m1), NFKBIZ (Hs00355476_m), DEFB4A (Hs00823638_m1), IL36G (Hs00219742_m1), and CCL20 (Hs00355476_m1).

[3] = tested on: skin-resident immunocompetent cells in human skin biopsies; test: Ex vivo full-thickness human skin biopsy culture with Th17-inducing cocktail
Method: Full-thickness skin punch biopsies (8 mm diameter) were taken from surgical discards. Briefly, subcutaneous fat was removed from the skin ranging in size between 150 and 200 cm^2 and 8 mm punches were obtained. Samples were incubated in IMDM medium supplemented with Glutamax, 10% FCS, 1% non-essential amino acids, 1 mM Sodium pyruvate, Penicillin/Streptomycin and Amphotericin B (2.5 μg/ml). Incubations were done in the presence of various concentrations of Cpd A or DMSO vehicle control together with a Th17-inducing cocktail consisting of IL-6 (20 ng/ml), TGF-β1 (5 ng/ml), IL-1β (10 ng/ml), IL-23 (10 ng/ml), anti-IL-4/IFNγ (5 μg/ml), and anti-CD3/CD28 antibodies (1 μg/ml). On day 4, supernatants were harvested and analyzed for IL-17 cytokine expression, whereas skin punch biopsies were snap frozen, stored at −80°C and further processed for qRT-PCR analysis.
Total RNA from human Th17 cells (6 × 10^5 cells), RORγt-RORE HUT78 cells (4 × 10^5 cells) and HaCaT cells (6 × 10^4 cells) was extracted using RNeasy kit including a DNAse I digestion step according to the manufacturer‘s protocol (Qiagen). […] Quantitative RT-PCR analysis was performed using a TaqManViiA7 (Applied Biosystems). […]

IC50 (naive human CD4+ T-cells): 15 nM
Compound: Cc1ccc(C(=O)Nc2cn3ccnc3c(CN3CCN(c4noc(C(C)(C)C)n4)[C@@H](C)C3)c2C)cn1 [Cpd A, (S)-N-(8-((4-(5-(tert-butyl)-1,2,4-oxadiazol-3-yl)-3-methylpiperazin-1-yl)methyl)-7-methylimidazo[1,2-a]pyridin-6-yl)-6-methylnicotinamide]
activity toward RORα (LBD-GAL4 reporter) (RORα): lacked activity
frequencies of IFN-γ+ cells (total CD4+ T-cells): not affected
frequencies of IL-17A+ cells within the CD4+ T-cell population (total CD4+ T-cells): reduced
IL-21-induced STAT3 phosphorylation (pY705) [1]: did not affect
CCR6 gene expression [2]: significantly attenuated
IL17A gene expression [2]: significantly attenuated
IL17F gene expression [2]: significantly attenuated
IL22 gene expression [2]: significantly attenuated
IL23R gene expression [2]: significantly attenuated
IL26 gene expression [2]: significantly attenuated
h-BD2 (DEFB4A) gene expression in skin punches [3]: significantly down-regulated
IL-17A secretion by skin-resident immunocompetent cells ([3]; ex vivo skin punches, various concentrations): concentration-dependent inhibition
